Reference: PubChem BioAssay AID651630 (Sanford-Burnham Center for Chemical Genomics, 2012)
Active and inactive are the calls of the source.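 How the source made its calls: active means lipid-stain IC50 at or below a set limit, with nuclear-stain toxicity IC50 at least five times higher; inactive means the rest.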

Legend:
[1] = system: DAPI; assay: TAG lipid buildup inhibition with viability readout – cell-based, panel, Nile Red and DAPI fluorescence, H9c2, dose response (AID 651630); conditions: H9c2 cells, DAPI nuclear fluorescence (cytotoxicity counter-readout), oleic acid;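 further: cells exposed to compound overnight before fixation and staining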
[2] = system: TAG; assay: as above; conditions: H9c2 cells, Nile Red TAG fluorescence, oleic acid

Compound | IC50 cytotoxicity (DAPI nuclear signal decrease) ([1]; mean of runs) | IC50 cytotoxicity (DAPI nuclear signal decrease) ([1]; run 1) | IC50 cytotoxicity (DAPI nuclear signal decrease) ([1]; run 2) | IC50 ([2]; mean of runs) | IC50 ([2]; run 1) | IC50 ([2]; run 2)
Cc1ccc(-n2cc(CNCCCn3cccn3)c(-c3cccc(C)c3)n2)cc1 | > 25 µM (inactive) | > 25 µM | > 25 µM | > 25 µM (inactive) | > 25 µM | > 25 µM
COc1ccc(NC(=S)N(CCCN2CCCC2)Cc2cccn2Cc2ccc(Cl)cc2)cc1Cl | – | 24.1 µM | > 25 µM | – | 16.8 µM | > 25 µM
Cc1cc(C(=O)COC(=O)c2ccc([N+](=O)[O-])o2)c(C)n1CC1CCCO1 (configuration not stated) | – | 16.4 µM | > 25 µM | 19.2 µM (inactive) | 18.9 µM | 19.4 µM
Cn1cc(/C=N/n2cnc3scc(-c4ccc(Cl)cc4)c3c2=O)c2ccccc21 | – | > 25 µM | > 25 µM | – | 5.8 µM | < 0.78 µM
O=C(Nc1cccc(-c2csc(Nc3cccc(C(F)(F)F)c3)n2)c1)c1cc([N+](=O)[O-])cc(C(F)(F)F)c1 | > 25 µM (inactive) | > 25 µM | > 25 µM | > 25 µM (inactive) | > 25 µM | > 25 µM
CCC1(O)CC2CN(CCc3c([nH]c4ccccc34)C(C(=O)OC)(c3cc4c(cc3OC)N(C=O)C3C(O)(C(=O)OC)C(OC(C)=O)C5(CC)C=CCN6CCC43C65)C2)C1 (configuration not stated) | > 25 µM (inactive) | > 25 µM | > 25 µM | – | < 0.78 µM | > 25 µM
CCCCCOc1ccc(NC(=O)CSc2cccc3cccnc23)cc1 | > 25 µM (inactive) | > 25 µM | > 25 µM | > 25 µM (inactive) | > 25 µM | > 25 µM
COc1cc2c3c(cccc3c1)C(=O)N(CCN1CCCC1)C2=O | > 25 µM (inactive) | > 25 µM | > 25 µM | 7.94 µM | 8.07 µM | 7.8 µM
Nc1c(Cl)cc(-c2csc(N3CCCC3c3nc4cc(Cl)c(Cl)cc4n3CCCO)n2)cc1Cl (configuration not stated) | > 25 µM (inactive) | > 25 µM | > 25 µM | 8.37 µM | 7.74 µM | 9 µM
Cc1cc(C)cc(-n2c3ccc(NC(=O)Cc4cccc5ccccc45)cc3c(=O)n2C)c1 | > 25 µM (inactive) | > 25 µM | > 25 µM | – | 21.7 µM | > 25 µM
CCc1nn2c(N3CCOCC3)cc(C)nc2c1-c1ccc(F)cc1 | > 25 µM (inactive) | > 25 µM | > 25 µM | – | > 25 µM | < 0.78 µM
c1ccc(OCCNc2nc(NCC3CC3)nc3cc(-c4ccccc4)sc23)cc1 | > 25 µM (inactive) | > 25 µM | > 25 µM | 12.8 µM | 12.7 µM | 12.9 µM
CCCCCc1ccc(-c2cn(Cc3ccc(C(=O)c4ccccc4)cc3)nn2)cc1 | > 25 µM (inactive) | > 25 µM | > 25 µM | – | 17.9 µM | > 25 µM
CC(=O)O[C@H]1C(=O)[C@]2(C)[C@H]([C@H](OC(=O)c3ccccc3)[C@]3(O)C[C@H](OC(=O)[C@H](O)[C@@H](NC(=O)c4ccccc4)c4ccccc4)C(C)=C1C3(C)C)[C@]1(OC(C)=O)CO[C@@H]1C[C@@H]2O | > 25 µM (inactive) | > 25 µM | > 25 µM | > 25 µM (inactive) | > 25 µM | > 25 µM
COc1ccccc1NC(=O)N1CCC(c2nc3cc(C)c(C)cc3[nH]2)CC1 | > 25 µM (inactive) | > 25 µM | > 25 µM | > 25 µM (inactive) | > 25 µM | > 25 µM
COC(=O)[C@]1(CC(C)C)N[C@H](c2ccc(-c3ccc(F)cc3)cc2)[C@@H]2C(=O)N(C)C(=O)[C@@H]21 | > 25 µM (inactive) | > 25 µM | > 25 µM | 14.9 µM | 14.6 µM | 15.1 µM
Cc1c(C(=O)OCC(C)C)[nH]c2c1C(=O)CC(c1cccs1)C2 (configuration not stated) | > 25 µM (inactive) | > 25 µM | > 25 µM | > 25 µM (inactive) | > 25 µM | > 25 µM
COC(=O)c1ccc(/C=C/c2c(-c3ccsc3)oc3ccc(N4CCOCC4)cc23)cc1 | > 25 µM (inactive) | > 25 µM | > 25 µM | 16.9 µM (inactive) | 25 µM | 8.72 µM
CSc1nc(N(C)NC(=O)c2ccc(Cl)cc2)c2ccccc2n1 | > 25 µM (inactive) | > 25 µM | > 25 µM | > 25 µM (inactive) | > 25 µM | > 25 µM
COc1cccc(N=Nc2c(O)[nH]c(=S)[nH]c2=O)c1 | – | 6.31 µM | > 25 µM | > 25 µM (inactive) | > 25 µM | > 25 µM
CCc1nc(C)c(C(=O)N2CCCC(C(=O)Nc3cccc(-c4cccc(C)c4)c3)C2)o1 (configuration not stated) | > 25 µM (inactive) | > 25 µM | > 25 µM | > 25 µM (inactive) | > 25 µM | > 25 µM
OC1CC2CCC(C1)N2CCCN1c2ccccc2Sc2ccc(Cl)cc21 (configuration not stated) | – | 19.4 µM | > 25 µM | – | 10.3 µM | > 25 µM
Nc1c(C(=O)NCc2ccccc2)sc2nc(N3CCOCC3)c3c(c12)CCCC3 | > 25 µM (inactive) | > 25 µM | > 25 µM | > 25 µM (inactive) | > 25 µM | > 25 µM
COc1cccc(/C=N/NC(=O)CSc2cccc3cccnc23)c1 | > 25 µM (inactive) | > 25 µM | > 25 µM | > 25 µM (inactive) | > 25 µM | > 25 µM
CCCCN1C(=O)/C(=C/C=C2/C=Cc3ccccc3N2CC)SC1=S | – | > 25 µM | > 25 µM | 4.3 µM | 2.4 µM | 6.2 µM
